Data reported in BindingDB's records for doi:10.1016/s0960-894x(98)00576-9 (Research Triangle Institute, 1999).

Assay: Compound was tested for the inhibition of [35S]GTP-gamma-S, binding in Guinea pig Caudate stimulated by the Opioid receptor delta 1 agonist Delta-SNC80

Row | SMILES | Ki [nM]
1 | CN1CC[C@]2(c3cccc(O)c3)Cc3ccccc3C[C@]2(C)C1 [3-((4aS,10aS)-2,10a-Dimethyl-1,3,4,5,10,10a-hexahydro-2H-benzo[g]isoquinolin-4a-yl)-phenol] | 222
2 | C[C@]12Cc3ccccc3C[C@@]1(c1cccc(O)c1)CCN(CCc1ccccc1)C2 [3-((4aS,10aS)-10a-Methyl-2-phenethyl-1,3,4,5,10,10a-hexahydro-2H-benzo[g]isoquinolin-4a-yl)-phenol] | 184
